Measurements reported in BindingDB's records for doi:10.1016/S0960-894X(98)00531-9 (Glaxo Wellcome Research and Development, 1999).

Columns and labels:
[1] = Compound was evaluated for the inhibition of Chymotrypsinogen
[2] = molecular target: T1, Chymotrypsin-C (Homo sapiens, UniProt Q99895); assay: ChEBML_49751
T1 sequence (Q99895 whole entry): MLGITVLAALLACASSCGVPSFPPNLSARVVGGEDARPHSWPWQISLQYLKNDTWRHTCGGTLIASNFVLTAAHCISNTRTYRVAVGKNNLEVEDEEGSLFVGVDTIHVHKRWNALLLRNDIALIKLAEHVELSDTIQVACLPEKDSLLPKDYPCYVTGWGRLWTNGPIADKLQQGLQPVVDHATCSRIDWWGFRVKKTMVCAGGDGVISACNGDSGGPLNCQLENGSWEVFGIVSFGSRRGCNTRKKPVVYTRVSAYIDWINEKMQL
Procedure: Compound was evaluated for the inhibition of Chymotrypsinogen

Compound | IC50 [1] | IC50 [2]
N=C(N)c1ccc(C[C@H]2C(=O)O[C@H]3CCC[C@@H]32)cc1 [4-((3R,3aR,6aS)-2-Oxo-hexahydro-cyclopenta[b]furan-3-ylmethyl)-benzamidine; compound with acetic acid] | – | > 100 µM
O=C1O[C@H]2CCC[C@@H]2[C@H]1Cc1ccccc1 [(3R,3aR,6aS)-3-Benzyl-hexahydro-cyclopenta[b]furan-2-one] | > 100 µM | –
CC(C)=CC(=O)C[C@@H]1C(=O)O[C@H]2CCC[C@@H]21 [(3S,3aR,6aS)-3-(4-Methyl-2-oxo-pent-3-enyl)-hexahydro-cyclopenta[b]furan-2-one] | > 100 µM | –
O=C1O[C@H]2CCC[C@@H]2[C@@H]1Cc1ccccc1 [(3S,3aR,6aS)-3-Benzyl-hexahydro-cyclopenta[b]furan-2-one] | > 100 µM | –
O=C1O[C@H]2CCC[C@@H]2[C@@H]1Sc1ccccc1 [(3S,3aS,6aS)-3-Phenylsulfanyl-hexahydro-cyclopenta[b]furan-2-one] | > 100 µM | –

The remaining lines, values ahead:

IC50 [1] | IC50 [2] | Compound
> 100 µM | – | N=C(N)CCCC[C@H]1C(=O)O[C@H]2CCC[C@@H]21
> 100 µM | – | N=C(N)c1cccc(C[C@H]2C(=O)O[C@H]3CCC[C@@H]32)c1 [3-((3R,3aR,6aS)-2-Oxo-hexahydro-cyclopenta[b]furan-3-ylmethyl)-benzamidine; compound with acetic acid]
> 0.1 µM | – | O=C1O[C@H]2CCC[C@@H]2[C@H]1Sc1ccccc1 [(3R,3aS,6aS)-3-Phenylsulfanyl-hexahydro-cyclopenta[b]furan-2-one]
